Drawing on US8476253B2, “Amide derivative” (Daiichi Sankyo Company, Limited, priority 2009, dated 2013), this text covers ID50 and ED50 for 8 compounds.

Counter-ions that a name gives are not always drawn.

Test [1] deals with muscarine M3 receptor. The test can be described thus: Effect of suppressing methacholine-induced airway contraction (in vivo, intratracheal administration). The arrangement: species or system guinea pig. The settings on record: guinea pigs, intratracheal administration 60 minutes before 30 μg/kg i.v. methacholine; AUC of increase in airway pressure over 10 minutes. The essentials:
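Anesthetized, gallamine-paralysed, ventilated male Hartley guinea pigs (350–550 g); compound in 5% glucose given intratracheally 60 min before 30 μg/kg i.v. methacholine. Airway pressure AUC over 10 min scored; ID50 from inhibition versus 5% glucose vehicle group.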

The target in test [2] is T1, neurokinin NK2 receptor (Cavia porcellus, UniProt Q64077).
T1 construct: Using healthy guinea pigs (body weight, 350 to 550 g; Hartley male guinea pigs); from tissue; host or cells: live anaesthetised Hartley male guinea pigs (airway, in vivo)
T1 sequence (Q64077 1-402): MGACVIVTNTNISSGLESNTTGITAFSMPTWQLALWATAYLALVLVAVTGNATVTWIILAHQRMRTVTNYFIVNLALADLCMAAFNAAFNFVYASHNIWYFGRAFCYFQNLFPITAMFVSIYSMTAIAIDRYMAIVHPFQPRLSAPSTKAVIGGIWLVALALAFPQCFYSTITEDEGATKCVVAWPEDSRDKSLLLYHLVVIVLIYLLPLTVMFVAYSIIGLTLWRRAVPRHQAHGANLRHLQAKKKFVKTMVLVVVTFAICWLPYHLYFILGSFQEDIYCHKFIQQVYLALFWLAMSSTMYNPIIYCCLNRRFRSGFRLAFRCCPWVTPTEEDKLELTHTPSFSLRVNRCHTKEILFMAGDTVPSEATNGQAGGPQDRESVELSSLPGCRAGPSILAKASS
As to the kind of experiment: Effect of suppressing neurokinin A-induced airway contraction (in vivo, intratracheal administration). Set-up: species or system guinea pig. The settings on record: guinea pigs, intratracheal administration 60 minutes before 4 μg/kg i.v. NKA, AUC of increase in airway pressure over 10 minutes; for ED50: guinea pig, read-out: ID50 (the source's name). The protocol: Using healthy guinea pigs (body weight, 350 to 550 g; Hartley male guinea pigs), the effect of suppressing airway contraction induced by neurokinin A (NKA), which is an NK2 receptor agonist, was examined by a modified method of Konzett-Roessler (Naunyn-Schmiedebergs Arch. Exp. Pathol. Pharmakol. 195, 71 [1940]) using airway pressure as an indicator.
A tracheal cannula and a venous cannula were attached to a guinea pig anesthetized with pentobarbital (50 mg/mL solution, 0.40 to 0.50 mL/body, subcutaneous administration). An arterial cannula filled with heparin-containing physiological saline (100 U/mL) was further attached, and blood pressure and heart rate were monitored via an amplifier and an instantaneous heart rate meter. Subsequently, gallamine (20 mg/body, intravenous administration) was administered to terminate spontaneous breathing, and 10 mL/kg of positive pressure breathing (Ugo-Basile Biological Research Apparatus, Cat. No. 7025) was rapidly performed at 60 times/min. The airway pressure during artificial breathing was detected with a pressure transducer (TP-200T or TP-400T; Nihon Kohden Corporation) attached to a side branch of the tracheal cannula, amplified (AP-601G; Nihon Kohden Corporation), and recorded in a recorder. After the airway pressure, blood pressure, and heart rate were stabilized, 4 μg/kg of NKA was intravenously administered from the venous cannula to induce airway contraction, and the airway pressure was measured for the following 10 minutes.
The test substance was dissolved in a 5% glucose solution, and a 0.5 mL/kg solution was intratracheally administered with an intratracheal administration apparatus (model 1A-1B; Penn-Century, Inc.) 60 minutes before stimulation with NKA.
The AUC of increase in the airway pressure over 10 minutes after administration of NKA was determined as the intensity of NKA-induced airway contraction and calculated as an ID50 value from the inhibition rate based on the value of the control group (5% glucose solution intratracheal administration group).

Consider `CN(CCN1CCC(OC(=O)Nc2ccccc2-c2ccccc2)CC1)C(=O)CCCN(C)c1ccc(C(=O)N(C)CCCN(C)C(=O)CO[C@H]2Cc3ccccc3C23CCN(CC[C@@]2(c4ccc(F)cc4)CN(C(=O)c4cc(C(F)(F)F)cc(C(F)(F)F)c4)CO2)CC3)cc1` [Example 36, 1-{2-[{4-[{4-[{3-[({[(2S)-1′-{2-[(5R)-3-[3,5-Bis(trifluoromethyl)benzoyl]-5-(4-fluorophenyl)-1,3-oxazolidin-5-yl]ethyl}-2,3-dihydrospiro[indene-1,4′-piperidin]-2-yl]oxy}acetyl)(methyl)amino]propyl}(methyl)carbamoyl]phenyl}(methyl)amino]butanoyl}(methyl)amino]ethyl}piperidin-4-yl biphenyl-2-ylcarbamate trihydrochloride], for which the ID50 in test [1] worked out at 0.0146 mg/kg. Moreover, the ED50 in test [2] stood at 0.0168 mg/kg.
The like results for `CN(CCN1CCC(OC(=O)Nc2ccccc2-c2ccccc2)CC1)C(=O)CCCCNc1ccc(C(=O)N(C)CCCN(C)C(=O)CO[C@H]2Cc3ccccc3C23CCN(CC[C@@]2(c4ccc(F)cc4)CN(C(=O)c4cc(C(F)(F)F)cc(C(F)(F)F)c4)CO2)CC3)cc1` [Example 32, 1-(2-{[5-({4-[{3-[({[(2S)-1′-{2-[(5R)-3-[3,5-Bis(trifluoromethyl)benzoyl]-5-(4-fluorophenyl)-1,3-oxazolidin-5-yl]ethyl}-2,3-dihydrospiro[indene-1,4′-piperidin]-2-yl]oxy}acetyl)(methyl)amino]propyl}(methyl)carbamoyl]phenyl}amino)pentanoyl](methyl)amino}ethyl)piperidin-4-yl biphenyl-2-ylcarbamate trihydrochloride] were, in that order, 0.0356 mg/kg and 0.0356 mg/kg.
With `CN(CCN1CCC(OC(=O)Nc2ccccc2-c2ccccc2)CC1)C(=O)CCCCCNc1nc2ccc(C(=O)N(C)CCCN(C)C(=O)CO[C@H]3Cc4ccccc4C34CCN(CC[C@@]3(c5ccc(F)cc5)CN(C(=O)c5cc(C(F)(F)F)cc(C(F)(F)F)c5)CO3)CC4)cc2s1` [Example 93, 1-(2-{[6-({6-[{3-[({[(2S)-1′-{2-[(5R)-3-[3,5-Bis(trifluoromethyl)benzoyl]-5-(4-fluorophenyl)-1,3-oxazolidin-5-yl]ethyl}-2,3-dihydrospiro[indene-1,4′-piperidin]-2-yl]oxy}acetyl)(methy)amino]propyl}(methyl)carbamoyl]-1,3-benzothiazol-2-yl}amino)hexanoyl](methyl)amino}ethyl)piperidin-4-yl biphenyl-2-ylcarbamate], the ID50 in test [1] amounted to 0.0372 mg/kg; in test [2], 0.0437 mg/kg.
For `Cc1nc(NCCCCCC(=O)N(C)CCN2CCC(OC(=O)Nc3ccccc3-c3ccccc3)CC2)sc1C(=O)N(C)CCCN(C)C(=O)CO[C@H]1Cc2ccccc2C12CCN(CC[C@@]1(c3ccc(F)cc3)CN(C(=O)c3cc(C(F)(F)F)cc(C(F)(F)F)c3)CO1)CC2` [Example 105, 1-(2-{[6-({5-[{3-[({[(2S)-1′-{2-[(5R)-3-[3,5-Bis(trifluoromethyl)benzoyl]-5-(4-fluorophenyl)-1,3-oxazolidin-5-yl]ethyl}-2,3-dihydrospiro[indene-1,4′-piperidin]-2-yl]oxy}acetyl)(methyl)amino]propyl}(methyl)carbamoyl]-4-methyl-1,3-thiazol-2-yl}amino)hexanoyl](methyl)amino}ethyl)piperidin-4-yl biphenyl-2-ylcarbamate trihydrochloride], the ID50 in test [1] was 0.04 mg/kg. Besides, in test [2], the ED50 is 0.0136 mg/kg.
`CN(CCN1CCC(OC(=O)Nc2ccccc2-c2ccccc2)CC1)C(=O)CCCCCNCc1ccc(C(=O)N(C)CCCN(C)C(=O)CO[C@H]2Cc3ccccc3C23CCN(CC[C@@]2(c4ccc(F)cc4)CN(C(=O)c4cc(C(F)(F)F)cc(C(F)(F)F)c4)CO2)CC3)s1` [Example 1, 1-{2-[{6-[({5-[{3-[({[(2S)-1′-{2-[(5R)-3-[3,5-Bis(trifluoromethyl)benzoyl]-5-(4-fluorophenyl)-1,3-oxazolidin-5-yl]ethyl}-2,3-dihydrospiro[indene-1,4′-piperidin]-2-yl]oxy}acetyl)(methyl)amino]propyl}(methyl)carbamoyl]-2-thienyl}methyl)amino]hexanoyl}(methyl)amino]ethyl}piperidin-4-yl biphenyl-2-ylcarbamate] yielded an ID50 in test [1] of 0.0177 mg/kg. In addition, the ED50 in test [2] is 0.0049 mg/kg.
With `Cc1cc(NCCCCCC(=O)N(C)CCN2CCC(OC(=O)Nc3ccccc3-c3ccccc3)CC2)ccc1C(=O)N(C)CCCN(C)C(=O)CO[C@H]1Cc2ccccc2C12CCN(CC[C@@]1(c3ccc(F)cc3)CN(C(=O)c3cc(C(F)(F)F)cc(C(F)(F)F)c3)CO1)CC2` [Example 18, 1-(2-{[6-({4-[{3-[({[(2S)-1′-{2-[(5R)-3-[3,5-Bis(trifluoromethyl)benzoyl]-5-(4-fluorophenyl)-1,3-oxazolidin-5-yl]ethyl}-2,3-dihydrospiro[indene-1,4′-piperidin]-2-yl]oxy}acetyl)(methyl)amino]propyl}(methyl)carbamoyl]-3-methylphenyl}amino)hexanoyl](methyl)amino}ethyl)piperidin-4-yl biphenyl-2-ylcarbamate trihydrochloride], in test [1], the ID50 was 0.0389 mg/kg. Besides, the ED50 in test [2] came out at 0.0453 mg/kg.
In the case of `CN(CCN1CCC(OC(=O)Nc2ccccc2-c2ccccc2)CC1)C(=O)CCCCCNc1ccc(C(=O)N(C)CCCN(C)C(=O)CO[C@H]2Cc3ccccc3C23CCN(CC[C@@]2(c4ccc(F)cc4)CN(C(=O)c4cc(C(F)(F)F)cc(C(F)(F)F)c4)CO2)CC3)nc1` [Example 9, 1-(2-{[6-({6-[{3-[({[(2S)-1′-{2-[(5R)-3-[3,5-Bis(trifluoromethyl)benzoyl]-5-(4-fluorophenyl)-1,3-oxazolidin-5-yl]ethyl}-2,3-dihydrospiro[indene-1,4′-piperidin]-2-yl]oxy}acetyl)(methyl)amino]propyl}(methyl)carbamoyl]pyridin-3-yl}amino)hexanoyl](methyl)amino}ethyl)piperidin-4-yl biphenyl-2-ylcarbamate], the ID50 in test [1] came out at 0.0164 mg/kg. Besides, in test [2], the ED50 amounted to 0.0374 mg/kg.
The matching figures for `CN(CCN1CCC(OC(=O)Nc2ccccc2-c2ccccc2)CC1)C(=O)CCN(C)c1ccc(C(=O)N(C)CCCN(C)C(=O)CO[C@H]2Cc3ccccc3C23CCN(CC[C@@]2(c4ccc(F)cc4)CN(C(=O)c4cc(C(F)(F)F)cc(C(F)(F)F)c4)CO2)CC3)cc1` [Example 95, 1-{2-[(N-{4-[{3-[({[(2S)-1′-{2-[(5R)-3-[3,5-Bis(trifluoromethyl)benzoyl]-5-(4-fluorophenyl)-1,3-oxazolidin-5-yl]ethyl}-2,3-dihydrospiro[indene-1,4′-piperidin]-2-yl]oxy}acetyl)(methy)amino]propyl}(methyl)carbamoyl]phenyl}-N-methyl-β-alanyl)(methyl)amino]ethyl}piperidin-4-yl biphenyl-2-ylcarbamate]: 0.0462 mg/kg and 0.039 mg/kg.
